Assay results as given in PMC5218480 (PLoS ONE, 2017).

Test system: MV-4-11 cells
Assay: Gene expression microarray analysis (Affymetrix PrimeView) and GSEA
Assay type: cell-based, human
Parameters: RFU PODN (11730768_x_at) / Fold change /veh PODN (11730768_x_at) / RFU LINC00158 (11744669_a_at) / Fold change /veh LINC00158 (11744669_a_at) / RFU DUSP10 (11751237_a_at) / Fold change /veh DUSP10 (11751237_a_at) / RFU ID3 (11757404_x_at) / Fold change /veh ID3 (11757404_x_at) / RFU PLEKHG5 (11737974_s_at) / Fold change /veh PLEKHG5 (11737974_s_at) / RFU LRRC4B (11730491_at) / Fold change /veh LRRC4B (11730491_at) / RFU GIMAP4 (11747438_a_at) / Fold change /veh GIMAP4 (11747438_a_at) / RFU KRT8 (11758183_x_at) / Fold change /veh KRT8 (11758183_x_at) / RFU CNN1 (11734310_a_at) / Fold change /veh CNN1 (11734310_a_at) / RFU VPS37D (11726825_at) / Fold change /veh VPS37D (11726825_at) / RFU C10orf10 (11716522_x_at) / Fold change /veh C10orf10 (11716522_x_at) / RFU KIR2DL2 /// KIR2DL4 /// KIR2DL5A /// KIR2DL5B /// KIR2DS1 /// KIR2DS2 /// KIR2DS3 /// KIR2DS4 /// KIR3DL3 /// KIR3DL3 /// KIR3DS1 (11738374_at) / Fold change /veh KIR2DL2 /// KIR2DL4 /// KIR2DL5A /// KIR2DL5B /// KIR2DS1 /// KIR2DS2 /// KIR2DS3 /// KIR2DS4 /// KIR3DL3 /// KIR3DL3 /// KIR3DS1 (11738374_at) / RFU C1QL1 (11718748_at) / Fold change /veh C1QL1 (11718748_at) / RFU TMPRSS4 (11747572_a_at) / Fold change /veh TMPRSS4 (11747572_a_at) / RFU HAMP (11756126_x_at) / Fold change /veh HAMP (11756126_x_at) / RFU RNFT2 (11725882_a_at) / Fold change /veh RNFT2 (11725882_a_at) / RFU NR4A2 (11747474_a_at) / Fold change /veh NR4A2 (11747474_a_at) / RFU ABCC12 (11746883_a_at) / Fold change /veh ABCC12 (11746883_a_at) / RFU TMEM136 (11760407_x_at) / Fold change /veh TMEM136 (11760407_x_at) / RFU CLDN22 /// WWC2 (11732394_at) / Fold change /veh CLDN22 /// WWC2 (11732394_at) / RFU HLA-DPB1 (11760878_x_at) / Fold change /veh HLA-DPB1 (11760878_x_at) / RFU SPINT1 (11716480_a_at) / Fold change /veh SPINT1 (11716480_a_at) / RFU GAP43 (11754022_s_at) / Fold change /veh GAP43 (11754022_s_at) / RFU A4GNT (11735810_at) / Fold change /veh A4GNT (11735810_at) / RFU PRB3 (11715151_x_at) / Fold change /veh PRB3 (11715151_x_at) / RFU TUBB4B (11761932_at) / Fold change /veh TUBB4B (11761932_at) / RFU CAPN14 (11732068_a_at) / Fold change /veh CAPN14 (11732068_a_at) / RFU TMCC2 (11721928_a_at) / Fold change /veh TMCC2 (11721928_a_at) / RFU IRGQ (11745062_a_at) / Fold change /veh IRGQ (11745062_a_at) / RFU FAM174B (11720279_a_at) / Fold change /veh FAM174B (11720279_a_at) / RFU TMPRSS4 (11748680_a_at) / Fold change /veh TMPRSS4 (11748680_a_at) / RFU FAM212B (11763350_a_at) / Fold change /veh FAM212B (11763350_a_at) / RFU PLEKHG5 (11743358_a_at) / Fold change /veh PLEKHG5 (11743358_a_at) / RFU ZSCAN30 (11745921_a_at) / Fold change /veh ZSCAN30 (11745921_a_at) / RFU CMKLR1 (11741424_a_at) / Fold change /veh CMKLR1 (11741424_a_at) / RFU LOC101060620 /// MAPK8IP1 (11723275_at) / Fold change /veh LOC101060620 /// MAPK8IP1 (11723275_at) / RFU SPTSSB (11747773_x_at) / Fold change /veh SPTSSB (11747773_x_at) / RFU PRSS12 (11739890_at) / Fold change /veh PRSS12 (11739890_at) / RFU BIN1 (11741810_x_at) / Fold change /veh BIN1 (11741810_x_at) / RFU WNT11 (11732464_a_at) / Fold change /veh WNT11 (11732464_a_at) / RFU C10orf10 (11716521_a_at) / Fold change /veh C10orf10 (11716521_a_at) / RFU C5orf56 (11738089_at) / Fold change /veh C5orf56 (11738089_at) / RFU CYB561 (11721691_x_at) / Fold change /veh CYB561 (11721691_x_at) / RFU ANKRD19P (11752326_a_at) / Fold change /veh ANKRD19P (11752326_a_at) / RFU OR2T12 /// OR2T33 /// OR2T8 (11738714_s_at) / Fold change /veh OR2T12 /// OR2T33 /// OR2T8 (11738714_s_at) / RFU VCAN (11748164_a_at) / Fold change /veh VCAN (11748164_a_at) / RFU JSRP1 (11732532_at) / Fold change /veh JSRP1 (11732532_at) / RFU KRTAP10-11 (11738290_x_at) / Fold change /veh KRTAP10-11 (11738290_x_at) / RFU MYO3A (11730013_a_at) / Fold change /veh MYO3A (11730013_a_at) / RFU EBF3 (11725865_a_at) / Fold change /veh EBF3 (11725865_a_at) / RFU CAMK2N1 (11719241_x_at) / Fold change /veh CAMK2N1 (11719241_x_at) / RFU C5orf56 (11738088_a_at) / Fold change /veh C5orf56 (11738088_a_at) / RFU OLFML3 (11715873_a_at) / Fold change /veh OLFML3 (11715873_a_at) / RFU LOC100653217 /// NTM (11731650_a_at) / Fold change /veh LOC100653217 /// NTM (11731650_a_at) / RFU MAPK11 (11762145_a_at) / Fold change /veh MAPK11 (11762145_a_at) / RFU FIZ1 (11724087_x_at) / Fold change /veh FIZ1 (11724087_x_at) / RFU OASL (11726364_x_at) / Fold change /veh OASL (11726364_x_at) / RFU SOX15 (11748057_x_at) / Fold change /veh SOX15 (11748057_x_at) / RFU CD79A (11719716_a_at) / Fold change /veh CD79A (11719716_a_at) / RFU HIST1H1D (11736915_at) / Fold change /veh HIST1H1D (11736915_at) / RFU CASKIN2 (11723855_a_at) / Fold change /veh CASKIN2 (11723855_a_at) / RFU LOC730098 (11760151_x_at) / Fold change /veh LOC730098 (11760151_x_at) / RFU OR4N2 (11742367_at) / Fold change /veh OR4N2 (11742367_at) / RFU PRRT2 (11749266_a_at) / Fold change /veh PRRT2 (11749266_a_at) / RFU SNX32 (11753110_a_at) / Fold change /veh SNX32 (11753110_a_at) / RFU CDHR5 (11726645_a_at) / Fold change /veh CDHR5 (11726645_a_at) / RFU RCAN1 (11760418_a_at) / Fold change /veh RCAN1 (11760418_a_at) / RFU FAM167A (11723789_a_at) / Fold change /veh FAM167A (11723789_a_at) / RFU FAM26E (11764081_at) / Fold change /veh FAM26E (11764081_at) / RFU ISYNA1 (11749810_s_at) / Fold change /veh ISYNA1 (11749810_s_at) / RFU ACY1 (11761880_at) / Fold change /veh ACY1 (11761880_at) / RFU 11764098_at / Fold change /veh 11764098_at / RFU SAMD14 (11745864_x_at) / Fold change /veh SAMD14 (11745864_x_at) / RFU NPB (11741838_a_at) / Fold change /veh NPB (11741838_a_at) / RFU TMPRSS6 (11731388_a_at) / Fold change /veh TMPRSS6 (11731388_a_at) / RFU KRTAP10-2 (11738614_at) / Fold change /veh KRTAP10-2 (11738614_at) / RFU ARHGAP8 /// PRR5-ARHGAP8 (11727945_x_at) / Fold change /veh ARHGAP8 /// PRR5-ARHGAP8 (11727945_x_at) / RFU KRTAP5-7 /// NADSYN1 (11734609_at) / Fold change /veh KRTAP5-7 /// NADSYN1 (11734609_at) / RFU RASL12 (11751679_a_at) / Fold change /veh RASL12 (11751679_a_at) / RFU CDKN2B (11736163_a_at) / Fold change /veh CDKN2B (11736163_a_at) / RFU PRF1 (11729649_at) / Fold change /veh PRF1 (11729649_at) / RFU, ZNF638 /// ZNF638-IT1 / Fold change vs veh, ZNF638 /// ZNF638-IT1 / RFU, PANK3 / Fold change vs veh, PANK3 / RFU, SH3YL1 / Fold change vs veh, SH3YL1 / RFU, ZEB2 / Fold change vs veh, ZEB2 / RFU, NRIP1 / Fold change vs veh, NRIP1 / RFU, PTTG1IP / Fold change vs veh, PTTG1IP / RFU, CAPN2 / Fold change vs veh, CAPN2 / RFU, MED14 / Fold change vs veh, MED14 / RFU, SNORA58 / Fold change vs veh, SNORA58 / RFU, C1orf63 / Fold change vs veh, C1orf63 / RFU, LRRFIP1 / Fold change vs veh, LRRFIP1 / RFU, NDUFAF7 / Fold change vs veh, NDUFAF7 / RFU, SLC12A2 / Fold change vs veh, SLC12A2 / RFU, IBTK / Fold change vs veh, IBTK / RFU, ESF1 / Fold change vs veh, ESF1 / Fold change vs veh, TMEM50B / RFU, TAOK1 / Fold change vs veh, TAOK1 / RFU, ACBD3 / Fold change vs veh, ACBD3 / RFU, TMA16 / Fold change vs veh, TMA16 / RFU, RWDD3 / Fold change vs veh, RWDD3 / RFU, BCAT1 / Fold change vs veh, BCAT1 / RFU, EDEM3 / Fold change vs veh, EDEM3 / RFU, TMEM33 / Fold change vs veh, TMEM33 / RFU, WDR75 / Fold change vs veh, WDR75 / RFU, AHCTF1 / Fold change vs veh, AHCTF1 / RFU, TFRC / Fold change vs veh, TFRC / RFU, ZDHHC17 / Fold change vs veh, ZDHHC17 / RFU, NOM1 / Fold change vs veh, NOM1 / RFU, ARL8B / Fold change vs veh, ARL8B / RFU, ZBTB11 / Fold change vs veh, ZBTB11 / RFU, TAMM41 / Fold change vs veh, TAMM41 / RFU, KIAA1704 /// LOC100996395 / Fold change vs veh, KIAA1704 /// LOC100996395 / RFU, ING1 / Fold change vs veh, ING1 / RFU, TRMT61B / Fold change vs veh, TRMT61B / RFU, FUBP3 / Fold change vs veh, FUBP3 / RFU, TP53 / Fold change vs veh, TP53 / RFU, TNKS2 / Fold change vs veh, TNKS2 / RFU, ZFP14 / Fold change vs veh, ZFP14 / RFU, ACTR2 / Fold change vs veh, ACTR2 / RFU, PPP3R1 / Fold change vs veh, PPP3R1 / RFU, PIK3R1 / Fold change vs veh, PIK3R1 / RFU, HNRNPA1 / Fold change vs veh, HNRNPA1 / RFU, RNF170 / Fold change vs veh, RNF170 / RFU, ZNF28 / Fold change vs veh, ZNF28 / RFU, RNGTT / Fold change vs veh, RNGTT / RFU, OGT / Fold change vs veh, OGT / RFU, BRD1 / Fold change vs veh, BRD1 / RFU, MARS / Fold change vs veh, MARS / RFU, ZNF655 / Fold change vs veh, ZNF655 / RFU, FAHD1 / Fold change vs veh, FAHD1 / RFU, BDP1 / Fold change vs veh, BDP1 / RFU, LRRCC1 / Fold change vs veh, LRRCC1 / RFU, ARID1A / Fold change vs veh, ARID1A / RFU, ZNF146 / Fold change vs veh, ZNF146 / RFU, ZNF330 / Fold change vs veh, ZNF330 / RFU, GPN3 / Fold change vs veh, GPN3 / RFU, C9orf123 / Fold change vs veh, C9orf123 / RFU, N4BP2L2 / Fold change vs veh, N4BP2L2 / RFU, ARFIP1 / Fold change vs veh, ARFIP1 / RFU, FAM179B / Fold change vs veh, FAM179B / RFU, BCL10 / Fold change vs veh, BCL10 / RFU, UHRF1BP1L / Fold change vs veh, UHRF1BP1L / RFU, BET1 / Fold change vs veh, BET1 / RFU, CNOT2 / Fold change vs veh, CNOT2 / RFU, ZNF268 / Fold change vs veh, ZNF268 / Fold change vs veh, ZNF507 / RFU, DGCR2 / Fold change vs veh, DGCR2 / RFU, WDSUB1 / Fold change vs veh, WDSUB1 / Fold change vs veh, HSP90B1 /// MIR3652 / RFU, ADSS / Fold change vs veh, ADSS / RFU, GK / Fold change vs veh, GK / RFU, ZNF148 / Fold change vs veh, ZNF148 / RFU, TAF9 / Fold change vs veh, TAF9 / RFU, SLC1A5 / Fold change vs veh, SLC1A5 / RFU, SLMO2 / Fold change vs veh, SLMO2 / RFU, ABCC4 / Fold change vs veh, ABCC4 / RFU, LOC101060439 /// RAP1B / Fold change vs veh, LOC101060439 /// RAP1B / RFU, RFX7 / Fold change vs veh, RFX7 / RFU, GTPBP10 / Fold change vs veh, GTPBP10 / RFU, CNEP1R1 / Fold change vs veh, CNEP1R1 / RFU, BIVM-ERCC5 /// ERCC5 / Fold change vs veh, BIVM-ERCC5 /// ERCC5 / RFU, ILF3 / Fold change vs veh, ILF3 / RFU 11762660_at / Fold change /veh 11762660_at / RFU VCAN (11757783_s_at) / Fold change /veh VCAN (11757783_s_at) / RFU DDX43 (11728927_at) / Fold change /veh DDX43 (11728927_at) / RFU KRT8 (11758188_x_at) / Fold change /veh KRT8 (11758188_x_at) / RFU NKD1 (11759106_at) / Fold change /veh NKD1 (11759106_at) / RFU SRD5A1 (11742802_a_at) / Fold change /veh SRD5A1 (11742802_a_at) / RFU TPSAB1 /// TPSB2 (11721975_s_at) / Fold change /veh TPSAB1 /// TPSB2 (11721975_s_at) / RFU GSTM3 (11746129_a_at) / Fold change /veh GSTM3 (11746129_a_at) / RFU IL23R (11737362_x_at) / Fold change /veh IL23R (11737362_x_at) / RFU TMEM51 (11727254_a_at) / Fold change /veh TMEM51 (11727254_a_at) / RFU PIWIL2 (11732686_x_at) / Fold change /veh PIWIL2 (11732686_x_at) / RFU ORM1 (11744905_x_at) / Fold change /veh ORM1 (11744905_x_at) / RFU CCDC152 (11743942_at) / Fold change /veh CCDC152 (11743942_at) / RFU ECM1 (11717891_a_at) / Fold change /veh ECM1 (11717891_a_at) / RFU IL23R (11748794_a_at) / Fold change /veh IL23R (11748794_a_at) / RFU TNFAIP8L3 (11732012_x_at) / Fold change /veh TNFAIP8L3 (11732012_x_at) / RFU MBOAT4 (11741988_at) / Fold change /veh MBOAT4 (11741988_at) / RFU 11764193_at / Fold change /veh 11764193_at / RFU TMEM53 (11763286_at) / Fold change /veh TMEM53 (11763286_at) / RFU MAGEB2 (11727129_at) / Fold change /veh MAGEB2 (11727129_at) / RFU TMEM200A (11744735_a_at) / Fold change /veh TMEM200A (11744735_a_at) / RFU CCDC152 (11751479_a_at) / Fold change /veh CCDC152 (11751479_a_at) / RFU FAM211A (11726209_a_at) / Fold change /veh FAM211A (11726209_a_at) / RFU RGS16 (11746705_a_at) / Fold change /veh RGS16 (11746705_a_at) / RFU VCAN (11755009_s_at) / Fold change /veh VCAN (11755009_s_at) / RFU RHOB (11743442_s_at) / Fold change /veh RHOB (11743442_s_at) / RFU RGS16 (11720943_a_at) / Fold change /veh RGS16 (11720943_a_at) / RFU RGS16 (11720944_at) / Fold change /veh RGS16 (11720944_at) / RFU, VPS4B / Fold change vs veh, VPS4B / RFU, CREB1 / Fold change vs veh, CREB1 / RFU, DNAJC13 / Fold change vs veh, DNAJC13 / RFU, GNAQ / Fold change vs veh, GNAQ / RFU, CDK5R1 / Fold change vs veh, CDK5R1 / RFU, ZRANB3 / Fold change vs veh, ZRANB3 / RFU, CUL4A / Fold change vs veh, CUL4A / RFU, CCNY / Fold change vs veh, CCNY / RFU, UFL1 / Fold change vs veh, UFL1 / RFU, COG3 / Fold change vs veh, COG3 / RFU, DIAPH2 / Fold change vs veh, DIAPH2 / RFU, SKA2 / Fold change vs veh, SKA2 / RFU, AFF3 / Fold change vs veh, AFF3 / RFU, LMF1 / Fold change vs veh, LMF1 / RFU, IPO11 / Fold change vs veh, IPO11 / RFU, DFFB / Fold change vs veh, DFFB / RFU, FOXP1 / Fold change vs veh, FOXP1 / RFU, CARD8 / Fold change vs veh, CARD8 / RFU, STRN3 / Fold change vs veh, STRN3 / RFU, ADK / Fold change vs veh, ADK / RFU, RASSF2 / Fold change vs veh, RASSF2 / RFU, WIPF1 / Fold change vs veh, WIPF1 / RFU, LARP1B / Fold change vs veh, LARP1B / RFU, RASA1 / Fold change vs veh, RASA1 / RFU, RB1 / Fold change vs veh, RB1 / RFU, PPFIA1 / Fold change vs veh, PPFIA1 / RFU, MAT2A / Fold change vs veh, MAT2A / RFU, CCT5 / Fold change vs veh, CCT5 / RFU, WDR92 / Fold change vs veh, WDR92 / RFU, CUX1 / Fold change vs veh, CUX1 / RFU, TTC7A / Fold change vs veh, TTC7A / RFU, TMEM135 / Fold change vs veh, TMEM135 / RFU, DEPTOR / Fold change vs veh, DEPTOR / RFU, CPM / Fold change vs veh, CPM / RFU, DNAJB6 / Fold change vs veh, DNAJB6 / RFU, CACNA2D3 / Fold change vs veh, CACNA2D3 / RFU, DTX4 / Fold change vs veh, DTX4 / RFU, TFCP2 / Fold change vs veh, TFCP2 / RFU, GMCL1 /// GMCL1P1 / Fold change vs veh, GMCL1 /// GMCL1P1 / RFU, AEBP2 / Fold change vs veh, AEBP2 / RFU, SNHG1 /// SNORD22 /// SNORD25 /// SNORD26 /// SNORD27 /// SNORD28 /// SNORD29 /// SNORD31 / Fold change vs veh, SNHG1 /// SNORD22 /// SNORD25 /// SNORD26 /// SNORD27 /// SNORD28 /// SNORD29 /// SNORD31 / Fold change (Aza/veh), C12orf56 (ProbeSet 11735607_a_at) / Fold change (ACY-1035/veh), C12orf56 (ProbeSet 11735607_a_at) / Fold change (Aza/veh), FGFR1OP (ProbeSet 11751329_s_at) / Fold change (ACY-1035/veh), FGFR1OP (ProbeSet 11751329_s_at) / Fold change (Aza/veh), VPS36 (ProbeSet 11739960_a_at) / Fold change (ACY-1035/veh), VPS36 (ProbeSet 11739960_a_at) / RFU SYPL1 (11715823_x_at) / Fold change /veh SYPL1 (11715823_x_at) / RFU IGFBP7 (11715501_s_at) / Fold change /veh IGFBP7 (11715501_s_at) / RFU REEP3 (11722064_at) / Fold change /veh REEP3 (11722064_at) / RFU IGLL1 (11728026_x_at) / Fold change /veh IGLL1 (11728026_x_at): dose or concentration left out as unconfirmed
Conditions: ProbeSet 11722022_s_at; LIST D

## Nc1ncn([C@@H]2O[C@H](CO)[C@@H](O)[C@H]2O)c(=O)n1 [azacitidine]
  Fold change vs veh, CDK5R1: 0.77
